Results published in patent US20240199649A1 (Biosplice Therapeutics, Inc., priority 2022, published 2024).

Target: recombinant DYRK1A kinase (Homo sapiens (Human), UniProt Q13627)
Assay: DYRK1A kinase assay (Ser/Thr 18 peptide Z-lyte FRET assay)
Format: biochemical
Conditions: DYRK1A 0.25 μg/mL, ATP 15 μM, Ser/Thr peptide 18 4 μM; one hour at room temperature; 11-point dose-response, duplicate
Experimental: Representative compounds were screened using the assay procedure for DYRK1A kinase activity as described below.
Each compound was dissolved in DMSO as a 10 mM stock and used to prepare compound source plates.
This is a non-radioactive assay using fluorescence resonance energy transfer (FRET) between coumarin and fluorescein to detect kinase activity which is represented as a ratio of coumarin emission/fluorescein emission.
The mixture was allowed to incubate with the representative compounds for one hour at room temperature. All reactions were performed in duplicate. Unphosphorylated (“0% Control”) and phosphorylated (“100% control”) forms of Ser/Thr 18 served as control reactions. Additionally, an 11-point dose-response curve of Staurosporine (1 uM top) was run to serve as a positive compound control.
After incubation, Development Reagent A was diluted in Development Buffer then added to the reaction and allowed to further incubate for one hour at room temperature.
Dose-response curves were generated, and inhibitory concentration (IC50) values were calculated using non-linear regression curve fit in the Dotmatics' Studies Software (Bishops Stortford, UK).

Row | SMILES | IC50
1 | CNc1nc(N[C@H]2CN(C3COC3)CC2(F)F)nn2ccc(-c3ccc4nc(C)n(CC(F)F)c4n3)c12 [Compound 367, (S)—N^2-(4,4-difluoro-1-(oxetan-3-yl)pyrrolidin-3-yl)-5-(3-(2,2-difluoroethyl)-2-methyl-3H-imidazo[4,5-b]pyridin-5-yl)-N^4-methylpyrrolo[2,1-f][1,2,4]triazine-2,4-diamine] | 6.4 nM
2 | CNc1nc(N[C@@H]2CN(C3COC3)CC2(F)F)nn2ccc(-c3ccc4nc(C)n(CC(F)F)c4n3)c12 [Compound 368, (R)—N^2-(4,4-Difluoro-1-(oxetan-3-yl)pyrrolidin-3-yl)-5-(3-(2,2-difluoroethyl)-2-methyl-3H-imidazo[4,5-b]pyridin-5-yl)-N^4-methylpyrrolo[2,1-f][1,2,4]triazine-2,4-diamine] | 1.2 nM
3 | CNc1nc(NC2CCN(CCF)CC2)nn2ccc(-c3ccc4nc(C)n(CC(F)F)c4n3)c12 [Compound 369, 5-(3-(2,2-Difluoroethyl)-2-methyl-3H-imidazo[4,5-b]pyridin-5-yl)-N^2-(1-(2-fluoroethyl)piperidin-4-yl)-N^4-methylpyrrolo[2,1-f][1,2,4]triazine-2,4-diamine] | 2.9 nM
4 | CNc1nc(NC2CCN(CC(F)(F)F)CC2)nn2ccc(-c3ccc4nc(C)n(CC(F)F)c4n3)c12 [Compound 370, 5-(3-(2,2-Difluoroethyl)-2-methyl-3H-imidazo[4,5-b]pyridin-5-yl)-N^4-methyl-N^2-(1-(2,2,2-trifluoroethyl)piperidin-4-yl)pyrrolo[2,1-f][1,2,4]triazine-2,4-diamine] | 15.5 nM
5 | CNc1nc(NC2CCN(C3CC(F)(F)C3)CC2)nn2ccc(-c3ccc4nc(C)n(CC(F)F)c4n3)c12 [Compound 371, N^2-(1-(3,3-Difluorocyclobutyl)piperidin-4-yl)-5-(3-(2,2-difluoroethyl)-2-methyl-3H-imidazo[4,5-b]pyridin-5-yl)-N^4-methylpyrrolo[2,1-f][1,2,4]triazine-2,4-diamine] | 2.2 nM
6 | CCN1CC[C@@H](Nc2nc(NC)c3c(-c4ccc5nc(C)n(CC(F)F)c5n4)ccn3n2)[C@@H](F)C1 [Compound 372, 5-(3-(2,2-Difluoroethyl)-2-methyl-3H-imidazo[4,5-b]pyridin-5-yl)-N^2-((3S,4R)-1-ethyl-3-fluoropiperidin-4-yl)-N^4-methylpyrrolo[2,1-f][1,2,4]triazine-2,4-diamine] | 5 nM
7 | CCN1CC[C@H](Nc2nc(NC)c3c(-c4ccc5nc(C)n(CC(F)F)c5n4)ccn3n2)[C@H](F)C1 [Compound 373, 5-(3-(2,2-Difluoroethyl)-2-methyl-3H-imidazo[4,5-b]pyridin-5-yl)-N^2-((3R,4S)-1-ethyl-3-fluoropiperidin-4-yl)-N^4-methylpyrrolo[2,1-f][1,2,4]triazine-2,4-diamine] | 3.8 nM
8 | CNc1nc(N[C@@H]2CCN(CCF)C[C@@H]2F)nn2ccc(-c3ccc4nc(C)n(CC(F)F)c4n3)c12 [Compound 374, 5-(3-(2,2-Difluoroethyl)-2-methyl-3H-imidazo[4,5-b]pyridin-5-yl)-N^2-((3S,4R)-3-fluoro-1-(2-fluoroethyl)piperidin-4-yl)-N^4-methylpyrrolo[2,1-f][1,2,4]triazine-2,4-diamine] | 2.2 nM
9 | CNc1nc(N[C@H]2CCN(CCF)C[C@H]2F)nn2ccc(-c3ccc4nc(C)n(CC(F)F)c4n3)c12 [Compound 375, 5-(3-(2,2-Difluoroethyl)-2-methyl-3H-imidazo[4,5-b]pyridin-5-yl)-N^2-((3R,4S)-3-fluoro-1-(2-fluoroethyl)piperidin-4-yl)-N^4-methylpyrrolo[2,1-f][1,2,4]triazine-2,4-diamine] | 0.6 nM
10 | CNc1nc(N[C@@H]2CCN(C3CC3)C[C@@H]2F)nn2ccc(-c3ccc4nc(C)n(CC(F)F)c4n3)c12 [Compound 377, N^2-((3S,4R)-1-Cyclopropyl-3-fluoropiperidin-4-yl)-5-(3-(2,2-difluoroethyl)-2-methyl-3H-imidazo[4,5-b]pyridin-5-yl)-N^4-methylpyrrolo[2,1-f][1,2,4]triazine-2,4-diamine] | 3.6 nM
